In patent US10414763B2 (CANCER RESEARCH TECHNOLOGY LIMITED, priority 2014, dated 2019):

biological target: T1, full-length human PKCι (Homo sapiens, UniProt P41743); test: PKCι IC50 IMAP fluorescence polarisation assay, full-length enzyme, 150 μM ATP; type: biochemical; conditions: read-out: IC50 in IMAP assay against full length PKCi at 150 μM ATP
T1 construct: Recombinant, full-length human PKCι expressed in Sf21 insect cells is also commercially available; purchased EMD Millipore; host or cells: Sf21 insect cells (baculovirus)
T1 sequence (P41743 1-596): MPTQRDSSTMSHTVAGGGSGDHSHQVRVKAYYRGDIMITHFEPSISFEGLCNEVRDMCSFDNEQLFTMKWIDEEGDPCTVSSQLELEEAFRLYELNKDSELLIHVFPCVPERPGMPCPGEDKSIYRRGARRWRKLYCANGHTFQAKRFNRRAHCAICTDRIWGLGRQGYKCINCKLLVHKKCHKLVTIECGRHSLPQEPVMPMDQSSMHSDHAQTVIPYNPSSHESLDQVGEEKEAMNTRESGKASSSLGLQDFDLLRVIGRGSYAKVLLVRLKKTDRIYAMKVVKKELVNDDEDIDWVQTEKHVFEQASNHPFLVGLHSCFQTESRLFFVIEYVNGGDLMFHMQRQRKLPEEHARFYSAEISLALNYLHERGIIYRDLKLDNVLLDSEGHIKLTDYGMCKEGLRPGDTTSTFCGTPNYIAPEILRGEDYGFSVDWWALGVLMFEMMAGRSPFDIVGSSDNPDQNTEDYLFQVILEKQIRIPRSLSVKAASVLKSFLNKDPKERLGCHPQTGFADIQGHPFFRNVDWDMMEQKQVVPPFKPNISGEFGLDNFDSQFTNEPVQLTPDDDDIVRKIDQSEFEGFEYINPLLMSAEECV
Outline: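 IMAP fluorescence polarisation kinase assay: 15 pM baculovirus-expressed human PKCiota with 100 nM FAM-pseudosubstrate peptide and 150 μM ATP, 1 h at 25 °C. IMAP detection reagent then 2 h at 25 °C before FP measurement. Inhibition referenced to no-compound and no-enzyme controls for IC50 fitting.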

SMILES	IC50
CN(c1nc(-c2ccnc(Nc3nc(F)ccc3F)c2)nc2cncc(C3CC3)c12)[C@H]1CCNCC1(C)C [Example 331, 5-Cyclopropyl-2-[2-[(3,6-difluoro-2-pyridyl)amino]-4-pyridyl]-N-[(4S)-3,3-dimethyl-4-piperidyl]-N-methyl-pyrido[3,4-d]pyrimidin-4-amine]	< 100 nM
CC1(C)CNCC[C@@H]1Nc1nc(-c2ccnc(Nc3nc4ccc(F)cc4o3)c2)nc2cncc(C3CC3)c12 [Example 332, N-[4-[5-Cyclopropyl-4-[[(4S)-3,3-dimethyl-4-piperidyl]amino]pyrido [3,4-d]pyrirnidin-2-yl]-2-pyridyl]-6-fluoro-1,3-benzoxazol-2-amine]	< 100 nM
CC1(C)CNCC[C@@H]1Nc1nc(-c2ccnc(Nc3ncc(C#N)cc3F)c2)nc2cncc(C3CC3)c12 [Example 333, 6-[[4-[5-Cyclopropyl-4-[[(4S)-3,3-dimethyl-4-piperidyl]amino]pyrido[3,4-d]pyrimidin-2-yl]-2-pyridyl]amino]-5-fluoro-pyridine-3-carbonitrile]	< 100 nM
CC1(C)CNCC[C@@H]1Nc1nc(-c2ccnc(Nc3ncccc3Cl)c2)nc2cncc(C3CCC3)c12 [Example 336, 2-[2-[(3-Chloro-2-pyridyl)amino]-4-pyridyl]-5-cyclobutyl-N-[(4S)-3,3-dimethyl-4-piperidyl]pyrido [3,4-d]pyrimidin-4-amine]	< 100 nM
CC1(C)CNCC[C@@H]1Nc1nc(-c2ccnc(Nc3ncc(Cl)cc3Cl)c2)nc2cncc(C3CCC3)c12 [Example 337, 5-Cyclobutyl-2-[2-[(3,5-dichloro-2-pyridyl)amino]-4-pyridyl]-N-[(4S)-3,3-dimethyl-4-piperidyl]pyrido[3,4-d]pyrimidin-4-amine]	< 100 nM
CC1(C)CNCC[C@@H]1Nc1nc(-c2ccnc(Nc3nc4ccc(F)cc4o3)c2)nc2cncc(C3CCC3)c12 [Example 338, N-[4-[5-Cyclobutyl-4-[[(4S)-3,3-dimethyl-4-piperidyl]amino]pyrido [3,4-d]pyrimidin-2-yl]-2-pyridyl]-6-fluoro-1,3-benzoxazol-2-amine]	< 100 nM
CC1(C)CNCC[C@@H]1Nc1nc(-c2ccnc(Nc3ncccc3Cl)c2)nc2cncc(C3CC3)c12 [Example 339, 2-[2-[(3-Chloro-2-pyridyl)amino]-4-pyridyl]-5-cyclopropyl-N-[(4S)-3,3-dimethyl-4-piperidyl]pyrido[3,4-d]pyrimidin-4-amine]	100 to 1000 nM
CC1(C)CNCC[C@@H]1Nc1nc(-c2ccnc(Nc3ncc(Cl)cc3Cl)c2)nc2cncc(C3CC3)c12 [Example 340, 5-Cyclopropyl-2-[2-[(3,5-dichloro-2-pyridyl)amino]-4-pyridyl]-N-[(4S)-3,3-dimethyl-4-piperidyl]pyrido[3,4-d]pyrimidin-4-amine]	< 100 nM
FC(F)(F)c1cncc2nc(-c3ccnc4[nH]c5ccccc5c34)nc(NC3CCNCC3)c12 [Example 348, Piperidin-4-yl-[2-(9H-pyrido[2,3-b]indol-4-yl)-5-trifluoromethyl-pyrido[3,4-d]pyrimidin-4-yl]-amine]	< 100 nM
CC1(C)CNCC[C@@H]1Nc1nc(-c2ccnc3[nH]c(C(=O)NC4CCCCC4)cc23)nc2cncc(C3CC3)c12 [Example 355, 4-[5-Cyclopropyl-4-((S)-3,3-dimethyl-piperidin-4-ylamino)-pyrido[3,4-d]pyrimidin-2-yl]-1H-pyrrolo[2,3-b]pyridine-2-carboxylic acid cyclohexylamide]	< 100 nM
c1cncc(-c2cc3c(-c4nc(N5CCC6CNCCC65)c5c(C6CC6)cncc5n4)ccnc3[nH]2)c1 (stereo not shown) [Example 356, 5-Cyclopropyl-4-(octahydro-pyrrolo[3,2-c]pyridin-1-yl)-2-(2-pyridin-3-yl-1H-pyrrolo[2,3-b]pyridin-4-yl)-pyrido[3,4-d]pyrimidine]	< 100 nM
COCc1ccccc1-c1cc2c(-c3nc(N[C@H]4CCNCC4(C)C)c4c(C5CC5)cncc4n3)ccnc2[nH]1 [Example 357, {5-Cyclopropyl-2-[2-(2-methoxymethyl-phenyl)-1H-pyrrolo[2,3-b]pyridin-4-yl]-pyrido[3,4-d]pyrimidin-4-yl}-((S)-3,3-dimethyl-piperidin-4-yl)-amine]	< 100 nM
Fc1ccc(Cl)c(-c2cc3c(-c4nc(N5CCOC6CNCC65)c5c(C6CC6)cncc5n4)ccnc3[nH]2)c1 (stereo not shown) [Example 360, 2-[2-(2-Chloro-5-fluoro-phenyl)-1H-pyrrolo[2,3-b]pyridin-4-yl]-5-cyclopropyl-4-(hexahydro-pyrrolo[3,4-b][1,4]oxazin-4-yl)-pyrido[3,4-d]pyrimidine]	< 100 nM
CC1(C)CNCC[C@@H]1Nc1nc(-c2ccnc3[nH]c(-c4cc(F)ccc4F)cc23)nc2cncc(C3CC3)c12 [Example 361, {5-Cyclopropyl-2-[2-(2,5-difluoro-phenyl)-1H-pyrrolo[2,3-b]pyridin-4-yl]-pyrido[3,4-d]pyrimidin-4-yl}-((S)-3,3-dimethyl-piperidin-4-yl)-amine]	< 100 nM
Cc1cncc(-c2cc3c(-c4nc(N[C@H]5CCNCC5(C)C)c5c(C6CC6)cncc5n4)ccnc3[nH]2)c1 [Example 362, {5-Cyclopropyl-2-[2-(5-methyl-pyridin-3-yl)-1H-pyrrolo[2,3-b]pyridin-4-yl]-pyrido[3,4-d]pyrimidin-4-yl}-((S)-3,3-dimethyl-piperidin-4-yl)-amine]	< 100 nM
CC1(C)CNCC[C@@H]1Nc1nc(-c2ccnc3[nH]c(C(=O)N4CCCCCC4)cc23)nc2cncc(C3CC3)c12 [Example 363, Azepan-1-yl-{4-[5-cyclopropyl-4-((S)-3,3-dimethyl-piperidin-4-ylamino)-pyrido[3,4-d]pyrimidin-2-yl]-1H-pyrrolo[2,3-b]pyridin-2-yl}-methanone]	< 100 nM
Cc1cnc(F)c(-c2cc3c(-c4nc(N[C@H]5CCNCC5(C)C)c5c(C6CC6)cncc5n4)ccnc3[nH]2)c1 [Example 364, {5-Cyclopropyl-2-[2-(2-fluoro-5-methyl-pyridin-3-yl)-1H-pyrrolo[2,3-b]pyridin-4-yl]-pyrido[3,4-d]pyrimidin-4-yl}-((S)-3,3-dimethyl-piperidin-4-yl)-amine]	< 100 nM
CC1(C)CNCC[C@@H]1Nc1nc(-c2ccnc3[nH]c(-c4cncc(F)c4)cc23)nc2cncc(C3CC3)c12 [Example 365, {5-Cyclopropyl-2-[2-(5-fluoro-pyridin-3-yl)-1H-pyrrolo[2,3-b]pyridin-4-yl]-pyrido[3,4-d]pyrimidin-4-yl}-((S)-3,3-dimethyl-piperidin-4-yl)-amine]	< 100 nM
CC1(C)CNCC[C@@H]1Nc1nc(-c2ccnc3[nH]c(C(=O)N4CCC4)cc23)nc2cncc(C3CC3)c12 [Example 366, Azetidin-1-yl-[4-[5-cyclopropyl-4-[[(4S)-3,3-dimethyl-4-piperidyl]amino]pyrido [3,4-d]pyrimidin-2-yl]-1H-pyrrolo[2,3-b]pyridin-2-yl]methanone]	< 100 nM
CC1(C)CNCC[C@@H]1Nc1nc(-c2ccnc3[nH]c(-c4cccnc4)cc23)nc2cncc(C3CCC3)c12 [Example 367, [5-Cyclobutyl-2-(2-pyridin-3-yl-1H-pyrrolo[2,3-b]pyridin-4-yl)-pyrido[3,4-d]pyrimidin-4-yl]-((S)-3,3-dimethyl-piperidin-4-yl)-amine]	< 100 nM
COc1ccc(Cl)c(-c2cc3c(-c4nc(N[C@H]5CCNCC5(C)C)c5c(C6CC6)cncc5n4)ccnc3[nH]2)c1 [Example 368, {2-[2-(2-Chloro-5-methoxy-phenyl)-1H-pyrrolo[2,3-b]pyridin-4-yl]-5-cyclopropyl-pyrido[3,4-d]pyrimidin-4-yl}-((S)-3,3-dimethyl-piperidin-4-yl)-amine]	< 100 nM
c1cncc(-c2cc3c(-c4nc(N[C@H]5CCCNCC5)c5c(C6CC6)cncc5n4)ccnc3[nH]2)c1 [Example 369, (S)-Azepan-4-yl-[5-cyclopropyl-2-(2-pyridin-3-yl-1H-pyrrolo[2,3-b]pyridin-4-yl)-pyrido[3,4-d]pyrimidin-4-yl]-amine]	< 100 nM
CC1(C)CNCC[C@@H]1Nc1nc(-c2ccnc3[nH]c(-c4cncc(F)c4)cc23)nc2cncc(C3CCC3)c12 [Example 370, {5-Cyclobutyl-2-[2-(5-fluoro-pyridin-3-yl)-1H-pyrrolo[2,3-b]pyridin-4-yl]-pyrido[3,4-d]pyrimidin-4-yl}-((S)-3,3-dimethyl-piperidin-4-yl)-amine]	< 100 nM
CC1(C)CNCC[C@@H]1Nc1nc(-c2ccnc3[nH]c(-c4ccncc4)cc23)nc2cncc(C3CC3)c12 [Example 371, 5-Cyclopropyl-N-[(4S)-3,3-dimethyl-4-piperidyl]-2-[2-(4-pyridyl)-1H-pyrrolo[2,3-b]pyridin-4-yl]pyrido[3,4-d]pyrimidin-4-amine]	< 100 nM
CC1(C)CNCC[C@@H]1Nc1nc(-c2ccnc3[nH]c(-c4cccnc4)cc23)nc2cncc(C(F)(F)F)c12 [Example 372, N-[(4S)-3,3-dimethyl-4-piperidyl]-2-[2-(3-pyridyl)-1H-pyrrolo[2,3-b]pyridin-4-yl]-5-(trifluoromethyl) pyrido[3,4-d]pyrimidin-4-amine]	< 100 nM
